Laboratory results reported in ChEMBL document CHEMBL5236660, “Design, synthesis, and biological evaluation of quinoxalinone derivatives as potent BRD4 inhibitors” (Bioorg Med Chem, 2023).
pIC50: −log10 of the molar value. The source made the active and inactive calls. The calls are words filed in the database; no cut-off is given here.

Key:
[1] = target: Bromodomain-containing protein 4 (Homo sapiens, UniProt O60885); assay: Inhibition of BRD4 BD1 (unknown origin) by TR-FRET assay
HepG2 [2] = assay: Antiproliferative activity against human HepG2 cells assessed as reduction in cell viability incubated for 72 hrs by MTT assay; assay type: functional, cell-based; conditions: HepG2, 72 h
MCF7 = assay: Antiproliferative activity against human MCF7 cells assessed as reduction in cell viability incubated for 72 hrs by MTT assay; assay type: functional, cell-based; conditions: MCF7, 72 h
[3] = Cytotoxicity against human GES1 cells assessed as reduction in cell viability incubated for 72 hrs by MTT assay; assay type: toxicity, cell-based
HT-29 = assay: Antiproliferative activity against human HT-29 cells assessed as reduction in cell viability incubated for 72 hrs by MTT assay; assay type: functional, cell-based; conditions: HT-29, 72 h
HepG2 [4] = assay: Induction of apoptosis in human HepG2 cells assessed as viable cells at 5 uM incubated for 24 hrs by Annexin-V/PI staining based flow cytometry (Rvb=94.0%); assay type: functional; conditions: read-out: Activity
HepG2 [5] = assay: Induction of apoptosis in human HepG2 cells assessed as total apoptotic cells at 5 uM incubated for 24 hrs by Annexin-V/PI staining based flow cytometry (Rvb=5.14%); assay type: functional
HepG2 [6] = assay: Induction of apoptosis in human HepG2 cells assessed as necrotic cells at 5 uM incubated for 24 hrs by Annexin-V/PI staining based flow cytometry (Rvb=0.85%); assay type: functional
HepG2 [7] = assay: Induction of apoptosis in human HepG2 cells assessed as increase in p21 level at 2.5 uM incubated for 24 hrs by Western blot analysis; assay type: functional, cell-based
HepG2 [8] = assay: Induction of cell cycle arrest in human HepG2 cells assessed as accumulation at S phase at 5 uM incubated for 24 hrs by flow cytometry (Rvb= 20.1%); assay type: functional
HepG2 [9] = assay: Inhibition of c-myc expression in human HepG2 cells at 5 uM incubated for 24 hrs by Western blot analysis; assay type: functional, cell-based
HepG2 [10] = assay: Induction of cell cycle arrest in human HepG2 cells assessed as accumulation at G2/M phase at 5 uM incubated for 24 hrs by flow cytometry (Rvb= 14.05%); assay type: functional
HepG2 [11] = assay: Induction of apoptosis in human HepG2 cells assessed as early apoptotic cells at 5 uM incubated for 24 hrs by Annexin-V/PI staining based flow cytometry (Rvb=4.48%); assay type: functional
HepG2 [12] = assay: Induction of apoptosis in human HepG2 cells assessed as increase in cleaved caspase-3 level at 2.5 uM incubated for 24 hrs by Western blot analysis; assay type: functional, cell-based
HepG2 [13] = assay: Induction of cell cycle arrest in human HepG2 cells assessed as accumulation at G0/G1 phase at 5 uM incubated for 24 hrs by flow cytometry (Rvb= 46.5%); assay type: functional
HepG2 [14] = assay: Induction of apoptosis in human HepG2 cells assessed as late apoptotic cells at 5 uM incubated for 24 hrs by Annexin-V/PI staining based flow cytometry (Rvb=0.66%); assay type: functional

| SMILES | pIC50 [1] | pIC50 (HepG2 [2]) | pIC50 (MCF7) | pIC50 (HT-29) | IC50 at 72 h [3] [µM] | also measured |
| --- | --- | --- | --- | --- | --- | --- |
| Cc1nc2cc(-c3cc(NS(C)(=O)=O)ccc3Oc3ccc(F)cc3Cl)ccc2[nH]c1=O | 5.81 |  |  |  |  |  |
| Cc1nc2cc(-c3cc(NS(C)(=O)=O)ccc3Oc3ccc(F)cc3F)ccc2[nH]c1=O |  | 4.79 | 5.13 | 5.16 | 33.5 |  |
| Cc1ccccc1Oc1ccc(NS(C)(=O)=O)cc1-c1ccc2[nH]c(=O)c(C)nc2c1 | 5.67 |  |  |  |  |  |
| Cc1nc2cc(-c3cc(NS(C)(=O)=O)ccc3Oc3ccccc3C(F)(F)F)ccc2[nH]c1=O | 5.58 |  |  |  |  |  |
| Cc1nc2cc(-c3cc(C=O)ccc3Oc3ccc(F)cc3F)ccc2[nH]c1=O | 5.60 |  |  |  |  |  |
| Cc1nc2cc(-c3cc(S(C)(=O)=O)ccc3Oc3ccc(F)cc3F)ccc2[nH]c1=O | 5.40 |  |  |  |  |  |
| COC(=O)c1ccc(Oc2ccc(F)cc2F)c(-c2ccc3[nH]c(=O)c(C)nc3c2)c1 | 5.37 |  |  |  |  |  |
| CCc1nc2cc(-c3cc(NS(C)(=O)=O)ccc3Oc3ccc(F)cc3F)ccc2[nH]c1=O |  | 4.83 | 5.71 | 4.78 | 29.8 |  |
| COc1cc(Cl)ccc1Oc1ccc(NS(C)(=O)=O)cc1-c1ccc2[nH]c(=O)c(C)nc2c1 | 5.63 |  |  |  |  |  |
| COc1ccccc1Oc1ccc(NS(C)(=O)=O)cc1-c1ccc2[nH]c(=O)c(C)nc2c1 | 5.55 |  |  |  |  |  |

The next lines start with results.

| pIC50 [1] | pIC50 (HepG2 [2]) | pIC50 (MCF7) | pIC50 (HT-29) | SMILES | IC50 at 72 h [3] [µM] | also measured |
| --- | --- | --- | --- | --- | --- | --- |
| 6.99 | 4.95 | 5.42 | 5.19 | Cc1nc2cc(-c3cc(NS(C)(=O)=O)ccc3Oc3ccc(F)cc3)ccc2[nH]c1=O | 36.5 |  |
| 6.11 | < 4.30 | < 4.30 | 4.60 | CCS(=O)(=O)Cc1ccc(Oc2ccc(F)cc2F)c(-c2ccc3[nH]c(=O)c(C)nc3c2)c1 | 45.8 |  |
| 5.88 |  |  |  | Cc1nc2cc(-c3cc(C(=O)N4CCN(C)CC4)ccc3Oc3ccc(F)cc3F)ccc2[nH]c1=O |  |  |
| 5.83 |  |  |  | Cc1nc2cc(-c3cc(C(=O)N4CCOCC4)ccc3Oc3ccc(F)cc3F)ccc2[nH]c1=O |  |  |
| 9.15 | 5.37 | 4.91 | 5.74 | CCS(=O)(=O)Nc1ccc(Oc2ccc(F)cc2F)c(-c2cn(C)c(=O)c3[nH]ccc23)c1 [MIVEBRESIB] | 4.31 | viability at 5 µM (HepG2 [4]): 63.6%; Activity (HepG2 [5]): 34.81%; Activity (HepG2 [6]): 1.63%; Activity (HepG2 [7]): Active; Activity (HepG2 [8]): 13.1%; inhibition (HepG2 [9]): Active; Activity (HepG2 [10]): 19.6%; Activity (HepG2 [11]): 32%; Activity (HepG2 [12]): Active; Activity (HepG2 [13]): 56.2%; Activity (HepG2 [14]): 2.81% |
| 7.32 | 5.27 | 5.01 | 4.78 | CCS(=O)(=O)Nc1ccc(Oc2ccc(F)cc2F)c(-c2ccc3[nH]c(=O)c(C)nc3c2)c1 | 20.2 |  |
| 6.12 | 4.64 | < 4.30 | 4.75 | Cc1nc2cc(-c3cc(CS(C)(=O)=O)ccc3Oc3ccc(F)cc3F)ccc2[nH]c1=O | 36.1 |  |
| 6.39 | 4.47 | 4.46 | 4.70 | Cc1nc2cc(-c3cc(C(C)O)ccc3Oc3ccc(F)cc3F)ccc2[nH]c1=O (stereo not given) | 30.8 |  |
| 5.95 |  |  |  | Cc1nc2cc(-c3cc(C(C)(C)O)ccc3Oc3ccc(F)cc3F)ccc2[nH]c1=O |  |  |
| 6.47 | 4.95 | 5.33 | 5.09 | Cc1nc2cc(-c3cc(NS(C)(=O)=O)ccc3Oc3ccc(Cl)cc3)ccc2[nH]c1=O | 18.1 |  |
| 6.21 | 4.75 | < 4.30 | 4.82 | Cc1nc2cc(-c3cc(C(=O)NCCO)ccc3Oc3ccc(F)cc3F)ccc2[nH]c1=O | > 100 |  |
